In US5318967A, “2,3,3a,4,5,9b-hexahydro-1H-benzo[e]indole derivatives” (priority 1991, dated 1994):

Each compound was assayed against acetylcholine esterase (Homo sapiens, UniProt P22303) (assay: biochemical). Settings: read-out: IC 50 for acetylcholine esterase inhibition.
Source text: The determination of the acetylcholine esterase inhibition was effected according to the method of Ellmann et al., Biochem. Pharmacol. 7 (1961) 88, and/or according to the method of Johnson et al., Analytical Biochemistry 64 (1975), 229.

Chain of acetylcholine esterase (P22303 32-614): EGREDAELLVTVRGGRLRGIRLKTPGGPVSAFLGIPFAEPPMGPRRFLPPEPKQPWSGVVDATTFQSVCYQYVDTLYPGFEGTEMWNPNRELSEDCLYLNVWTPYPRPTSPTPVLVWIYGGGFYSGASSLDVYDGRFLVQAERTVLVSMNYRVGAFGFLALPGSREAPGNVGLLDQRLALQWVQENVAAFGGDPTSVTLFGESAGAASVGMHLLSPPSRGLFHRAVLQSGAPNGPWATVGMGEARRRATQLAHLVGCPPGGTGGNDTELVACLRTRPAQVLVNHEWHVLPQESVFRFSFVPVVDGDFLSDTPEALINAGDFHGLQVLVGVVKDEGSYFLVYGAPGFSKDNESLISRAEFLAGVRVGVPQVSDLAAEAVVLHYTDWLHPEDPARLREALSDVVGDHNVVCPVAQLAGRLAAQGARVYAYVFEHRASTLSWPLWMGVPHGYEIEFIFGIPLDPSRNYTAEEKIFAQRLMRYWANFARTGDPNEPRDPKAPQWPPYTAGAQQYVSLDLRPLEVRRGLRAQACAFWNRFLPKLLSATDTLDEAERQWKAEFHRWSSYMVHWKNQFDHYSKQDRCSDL

Compound | IC50
CCCCNC(=O)Oc1cccc2c1CC[C@H]1[C@@H]2CCN1CCC1CCCCC1 (racemic) [rac-cis-3-(2-cyclohexylethyl)-2,3,3a,4,5,9b-hexahydro-1H-benzo[e]indol-6-yl butylcarbamate] | 793 nM
CN(C)C(=O)Oc1cccc2c1CC[C@@H]1[C@H]2CCN1CCCCCCNC(=O)c1ccc(S(C)(=O)=O)cc1 (relative stereo) [rac-3-[6-(4-methanesulfonyl-benzoylamino)hexyl]-2,3,3a,4,5,9b-hexahydro-1H-cis-benzo[e]indol-6-yl-dimethylcarbamate] | 5.6 nM
CN(C)C(=O)Oc1cccc2c1CC[C@@H]1[C@H]2CCN1CCCCCN (relative stereo) [rac-3-(5-aminopentyl)-2,3,3a,4,5,9b-hexahydro-1H-cis-benzo[e]indol-6-yl dimethylcarbamate] | 111 nM
CN(C)C(=O)Oc1cccc2c1CC[C@H]1[C@@H]2CCN1CCN1CCCCC1 (racemic) [rac-3-(2-piperidin-1-yl-ethyl)-cis-2,3,3a,4,5,9b-hexahydro-1H-benzo[e]indol-6-yl dimethylcarbamate] | 31 nM
CN(C)C(=O)Oc1cccc2c1CC[C@@H]1[C@H]2CCN1CCCCCN1C(=O)[C@H]2CCCC[C@H]2C1=O (relative stereo) [rac-3-[5-(1,3-dioxo-octahydro-cis-isoindol-2-yl)pentyl]-2,3,3a,4,5,9b-hexahydro-1H-cis-benzo[e]indol-6-yl dimethylcarbamate] | 7.8 nM
CN(C)C(=O)Oc1cccc2c1CC[C@H]1[C@@H]2CCN1CCCCCNC(=O)c1ccc(S(C)(=O)=O)cc1 (racemic) [rac-cis-3-[5-(4-methanesulfonylbenzoylamino)pentyl]-2,3,3a,4,5,9b-hexahydro-1H-benzo[e]indol-6-yl dimethylcarbamate] | 5.1 nM
CN(C)C(=O)Oc1cccc2c1CC[C@H]1[C@@H]2CCN1CCCCCCN1C(=O)CC(C)(C)CC1=O (racemic) [rac-3-[6-(4,4-dimethyl-2,6-dioxo-piperidin-1-yl)-hexyl]-cis-2,3,3a,4,5,9b-hexahydro-1H-benzo[e]indol-6-yl dimethylcarbamate] | 8 nM
CN(C)C(=O)Oc1cccc2c1CC[C@H]1[C@H]2CCN1CCC1CCCCC1 (single isomer, unassigned) [(+)-trans-3-(2-cyclohexylethyl)-2,3,3a,4,5,9b-hexahydro-1H-benzo[e]indol-6-yl dimethylcarbamate] | 22 nM
CN(C)C(=O)Oc1cccc2c1CC[C@@H]1[C@H]2CCN1Cc1ccccc1 (relative stereo) [rac-3-benzyl-2,3,3a,4,5,9b-hexahydro-1H-cis-benzo[e]indol-6-yl dimethylcarbamate] | 49 nM
CN(C)C(=O)Oc1cccc2c1CC[C@H]1[C@@H]2CCN1CCCCCCN1Cc2ccccc2C1=O (racemic) [rac-3-[6-(1-oxo-isoindolin-2-yl)-hexyl]-cis-2,3,3a,4,5,9b-hexahydro-1H-benzo[e]indol-6-yl dimethylcarbamate] | 2.9 nM
COc1ccc(C(=O)CCCCCN2CC[C@@H]3c4cccc(OC(=O)N(C)C)c4CC[C@@H]32)cc1OC (racemic) [rac-3-[5-(3,4-dimethoxy-benzoyl)-pentyl]-cis-2,3,3a,4,5,9b-hexahydro-1H-benzo[e]indol-6-yl dimethylcarbamate] | 1.2 nM
CC(C)CCN1CC[C@@H]2c3cccc(OC(=O)N(C)C)c3CC[C@@H]21 (racemic) [rac-3-(3-methylbutyl)-cis-2,3,3a,4,5,9b-hexahydro-1H-benzo[e]indol-6-yl dimethylcarbamate] | 67 nM
CN(C)C(=O)Oc1cccc2c1CC[C@H]1[C@@H]2CCN1CCCCCN1C(=O)CC(C)(C)CC1=O (racemic) [rac-3-[5-(4,4-dimethyl-2,6-dioxo-piperidin-1-yl)-pentyl]-cis-2,3,3a,4,5,9b-hexahydro-1H-benzo[e]indol-6-yl dimethylcarbamate] | 11 nM
CN(C)C(=O)Oc1cccc2c1CC[C@@H]1[C@H]2CCN1CCCCCCN (relative stereo) [rac-3-(6-aminohexyl)-2,3,3a,4,5,9b-hexahydro-1H-cis-benzo[e]indol-6-yl dimethylcarbamate] | 8 nM
CN(C)C(=O)Oc1cccc2c1CC[C@H]1[C@@H]2CCN1CCCN1CCOCC1 (racemic) [rac-3-(3-morpholin-4-yl-propyl)-cis-2,3,3a,4,5,9b-hexahydro-1H-benzo[e]indol-6-yl dimethylcarbamate] | 63 nM
CN(C)C(=O)Oc1cccc2c1CC[C@H]1[C@@H]2CCN1CCCCCN1C(=O)c2ccccc2C1=O (racemic) [rac-3-[5-(1,3-dioxo-isoindolin-2-yl)-pentyl]-cis-2,3,3a,4,5,9b-hexahydro-1H-benzo[e]indol-6-yl dimethylcarbamate] | 2.7 nM
CN(C)C(=O)Oc1cccc2c1CC[C@@H]1[C@H]2CCN1CCCCCCNC(=O)c1ccccc1 (relative stereo) [rac-3-(6-benzoylamino-hexyl)-2,3,3a,4,5,9b-hexahydro-1H-cis-benzo[e]indol-6-yl-dimethylcarbamate] | 11 nM
CN(C)C(=O)Oc1cccc2c1CC[C@H]1[C@@H]2CCN1CCCCNC(=O)c1ccccc1 (racemic) [rac-cis-3-(4-benzoylaminobutyl)-2,3,3a,4,5,9b-hexahydro-1H-benzo[e]indol-6-yl dimethylcarbamate] | 16 nM

Compound | IC50
CN(C)C(=O)Oc1cccc2c1CC[C@H]1[C@@H]2CCN1C1CCCC1 (racemic) [rac-cis-3-cyclopentyl-2,3,3a,4,5,9b-hexahydro-1H-benzo[e]indol-6-yl dimethylcarbamate] | 95 nM
CNC(=O)Oc1cccc2c1CC[C@H]1[C@@H]2CCN1CCC1CCCCC1 (single isomer, unassigned) [(+)-cis-3-(2-cyclohexylethyl)-2,3,3a,4,5,9b-hexahydro-1H-benzo[e]indol-6-yl methylcarbamate] | 18 nM
CN(C)C(=O)Oc1cccc2c1CC[C@H]1[C@@H]2CCN1CCCC(=O)c1ccc(F)cc1 (racemic) [rac-3-[3-(4-fluoro-benzoyl)-propyl]-cis-2,3,3a,4,5,9b-hexahydro-1H-benzo[e]indol-6-yl dimethylcarbamate] | 6.8 nM
CN(C)C(=O)Oc1cccc2c1CC[C@H]1[C@@H]2CCN1CCCCCN1Cc2ccccc2C1=O (racemic) [rac-3-[5-(1-oxo-isoindolin-2-yl)-pentyl]-cis-2,3,3a,4,5,9b-hexahydro-1H-benzo[e]indol-6-yl dimethylcarbamate] | 4.5 nM
CN(C)C(=O)Oc1cccc2c1CC[C@H]1[C@@H]2CCN1CCCC1CCCCC1 (racemic) [rac-3-(3-cyclohexylpropyl)-cis-2,3,3a,4,5,9b-hexahydro-1H-benzo[e]indol-6-yl dimethylcarbamate] | 19 nM
CCCNC(=O)Oc1cccc2c1CC[C@H]1[C@@H]2CCN1CCC1CCCCC1 (single isomer, unassigned) [(+)-cis-3-(2-cyclohexylethyl)-2,3,3a,4,5,9b-hexahydro-1H-benzo[e]indol-6-yl propylcarbamate] | 2.6 nM
CCN(C)C(=O)Oc1cccc2c1CC[C@H]1[C@@H]2CCN1CCC1CCCCC1 (single isomer, unassigned) [(+)-cis-3-(2-cyclohexylethyl)-2,3,3a,4,5,9b-hexahydro-1H-benzo[e]indol-6-yl ethylmethylcarbamate] | 3.5 nM
CN(C)C(=O)Oc1cccc2c1CC[C@H]1[C@@H]2CCN1CCCCC(=O)c1ccccc1 (racemic) [rac-3-(4-benzoyl-butyl)-cis-2,3,3a,4,5,9b-hexahydro-1H-benzo[e]indol-6-yl dimethylcarbamate] | 612 nM
CCNC(=O)Oc1cccc2c1CC[C@H]1[C@@H]2CCN1CCC1CCCCC1 (single isomer, unassigned) [(+)-cis-3-(2-cyclohexylethyl)-2,3,3a,4,5,9b-hexahydro-1H-benzo[e]indol-6-yl ethylcarbamate] | 2460 nM
CN(C)C(=O)Oc1cccc2c1CC[C@H]1[C@@H]2CCN1CCCC1CCCC1 (racemic) [rac-cis-3-(3-cyclopentyl-propyl)-2,3,3a,4,5,9b-hexahydro-1H-benzo[e]indol-6-yl dimethylcarbamate] | 14 nM
CN(C)C(=O)Oc1cccc2c1CC[C@@H]1[C@H]2CCN1CCCCN (relative stereo) [rac-3-(4-aminobutyl)-2,3,3a,4,5,9b-hexahydro-1H-cis-benzo[e]indol-6-yl dimethylcarbamate] | 267 nM
CN(C)C(=O)Oc1cccc2c1CC[C@H]1[C@@H]2CCN1CCc1ccccc1 (racemic) [rac-3-phenethyl-cis-2,3,3a,4,5,9b-hexahydro-1H-benzo[e]indol-6-yl dimethylcarbamate] | 47 nM
CN(C)C(=O)Oc1cccc2c1CC[C@H]1[C@@H]2CCN1CCCc1ccccc1 (racemic) [rac-3-(3-phenylpropyl)-cis-2,3,3a,4,5,9b-hexahydro-1H-benzo[e]indol-6-yl dimethylcarbamate] | 36 nM
CN(C)C(=O)Oc1cccc2c1CC[C@H]1[C@@H]2CCN1CCCCN1C(=O)CC(C)(C)CC1=O (racemic) [rac-3-[4-(4,4-dimethyl-2,6-dioxo-piperidin-1-yl)-butyl]-cis-2,3,3a,4,5,9b-hexahydro-1H-benzo[e]indol-6-yl dimethylcarbamate] | 13 nM
COc1ccc(C(=O)CCCCN2CC[C@@H]3c4cccc(OC(=O)N(C)C)c4CC[C@@H]32)cc1OC (racemic) [rac-3-[4-(3,4-Dimethoxy-benzoyl)-butyl]-cis-2,3,3a,4,5,9b-hexahydro-1H-benzo[e]indol-6-yl dimethylcarbamate] | 1.4 nM
CN(C)C(=O)Oc1cccc2c1CC[C@H]1[C@@H]2CCN1CC1CCCCC1 (racemic) [rac-3-cyclohexylmethyl-cis-2,3,3a,4,5,9b-hexahydro-1H-benzo[e]indol-6-yl dimethylcarbamate] | 36 nM
CN(C)C(=O)Oc1cccc2c1CC[C@H]1[C@@H]2CCN1CCCCC1CCCCC1 (racemic) [rac-cis-3-(4-cyclohexyl-butyl)-2,3,3a,4,5,9b-hexahydro-1H-benzo[e]indol-6-yl dimethylcarbamate] | 35 nM
CN(C)C(=O)Oc1cccc2c1CC[C@H]1[C@@H]2CCN1CCC1CCCC1 (racemic) [rac-3-(2-cyclopentylethyl)-cis-2,3,3a,4,5,9b-hexahydro-1H-benzo[e]indol-6-yl dimethylcarbamate] | 30 nM
